Strand notation (5' to 3'): a small letter for the sugar, then the base; units joined by * are phosphorothioate-linked, units joined directly phosphodiester-linked; [ ] holds rarer units or linkages, { } end groups; capitals alone tell only the bases. e = 2'-O-(2-methoxyethyl) (MOE); [5mC] = 5-methylcytosine; d = 2'-deoxy (DNA)
How the values were obtained:
[1] = tested on: human PKK mRNA; test: Antisense inhibition of human PKK mRNA in HepaRG cells, 5,000 nM (Example 2); assay type: cell-based
Outline: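 Percent inhibition of PKK mRNA is relative to untreated control, with qRT-PCR (probe set RTS3454) values adjusted to total RNA by RIBOGREEN. Oligonucleotides, fully phosphorothioate 2′-MOE gapmers, were delivered at 5,000 nM by electroporation into 20,000 HepaRG cells/well for about 24 h.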

[2] = tested on: human PKK mRNA; test: Dose-dependent antisense inhibition of human PKK in HepaRG cells, 0.19-5.00 uM (Example 5); assay type: cell-based; settings: for percent inhibition of PKK mRNA, 0.19 μM: 0.19 μM antisense oligonucleotide; for percent inhibition of PKK mRNA, 0.56 μM: 0.56 μM antisense oligonucleotide; for percent inhibition of PKK mRNA, 1.67 μM: 1.67 μM antisense oligonucleotide; for percent inhibition of PKK mRNA, 5.00 μM: 5.00 μM antisense oligonucleotide
Outline: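 PKK mRNA knockdown was measured by real-time PCR (primer probe set RTS3454) about 16 h after electroporating 20,000 HepaRG cells per well with oligonucleotide at four doses from 0.19 to 5.00 μM. Levels were adjusted to RIBOGREEN-measured total RNA, and IC50 values were calculated.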

[3] = HepaRG cells, electroporation, approximately 16 hours, Table 37
[4] = 4 point dose response, HepaRG cells, Table 37
[5] = human PKK mRNA in HepaRG cells, 5-10-5 gapmers, Table 14
[6] = HepaRG cells, electroporation, approximately 16 hours, Table 35
[7] = HepaRG cells, electroporation, approximately 16 hours, Table 41
[8] = 4 point dose response, HepaRG cells, Table 35
[9] = 4 point dose response, HepaRG cells, Table 41
[10] = HepaRG cells, electroporation with 5,000 nM antisense oligonucleotide, approximately 24 hours, PKK mRNA by RT-PCR (RTS3454), relative to untreated control cells, Table 5 experiment
[11] = Table 13, human PKK mRNA in HepaRG cells, 5-10-5 gapmers
[12] = Table 34, HepaRG, electroporation, ~16 h
[13] = Table 34, PKK mRNA, HepaRG, electroporation, ~16 h
[14] = HepaRG cells, electroporation, approximately 16 hours, Table 40
[15] = HepaRG cells, electroporation with 5,000 nM antisense oligonucleotide, approximately 24 hours, PKK mRNA by RT-PCR (RTS3454), relative to untreated control cells, Table 6 experiment
[16] = HepaRG cells, electroporation, approximately 16 hours, Table 39
[17] = HepaRG cells, electroporation, approximately 16 hours, Table 38
[18] = 4 point dose response, HepaRG cells, Table 38
[19] = HepaRG cells, electroporation, approximately 16 hours, Table 36

Substance: 546304 (antisense e[5mC]*eT*eT*eT*eT*dA*dT*dT*dT*dG*dT*dG*dA*dG*dA*eA*eA*eG*eG*eT) [compound 546304]
- % inhibition ([1]; Table 9 experiment, HepaRG cells, 20,000 cells per well, electroporation with 5,000 nM antisense oligonucleotide, approx. 24 hours, PKK mRNA by RT-PCR (RTS3454), relative to untreated control cells): 94%
- % inhibition ([1]; Table 10 experiment, HepaRG cells, 20,000 cells per well, electroporation with 5,000 nM antisense oligonucleotide, approx. 24 hours, PKK mRNA by RT-PCR (RTS3454), relative to untreated control cells): 86%
- percent inhibition of PKK at 0.19 μM [2, 3]: 0%
- percent inhibition of PKK at 0.56 μM [2, 3]: 6%
- percent inhibition of PKK at 1.67 μM [2, 3]: 51%
- percent inhibition of PKK at 5.00 μM [2, 3]: 71%
- IC50 [2, 4]: 2.1 µM

Substance: 547602 (antisense eT*e[5mC]*eA*e[5mC]*eT*dG*dT*dA*d[5mC]*d[5mC]*dT*dA*dT*dA*dA*e[5mC]*eT*e[5mC]*eT*eA) [compound 547602]
- % inhibition [1, 5]: 93%
- percent inhibition of PKK at 0.19 μM [2, 6]: 18%
- percent inhibition of PKK at 0.56 μM [2, 6]: 53%
- percent inhibition of PKK at 1.67 μM [2, 6]: 92%
- percent inhibition of PKK at 5.00 μM [2, 6]: 87%
- percent inhibition of PKK at 5.00 μM [2, 7]: 93%
- percent inhibition of PKK at 0.19 0μM [2, 7]: 1%
- percent inhibition of PKK at 0.56 0μM [2, 7]: 9%
- percent inhibition of PKK at 1.67 1μM [2, 7]: 52%
- IC50 [2, 8]: 0.5 µM
- IC50 [2, 9]: 1.4 µM

Substance: 547276 (antisense e[5mC]*eA*eA*eT*eT*dG*d[5mC]*dT*dT*d[5mC]*dT*dT*dG*dG*dA*eG*eG*eT*eG*eA) [compound 547276]
- % inhibition [1, 10]: 93%
- percent inhibition of PKK at 0.19 μM [2, 6]: 35%
- percent inhibition of PKK at 0.56 μM [2, 6]: 44%
- percent inhibition of PKK at 1.67 μM [2, 6]: 71%
- percent inhibition of PKK at 5.00 μM [2, 6]: 77%
- IC50 [2, 8]: 0.6 µM
- percent inhibition of PKK mRNA, 0.19 μM ([2]; HepaRG cells): 6%
- percent inhibition of PKK mRNA, 0.56 μM ([2]; HepaRG cells): 3%
- percent inhibition of PKK mRNA, 1.67 μM ([2]; HepaRG cells): 53%
- percent inhibition of PKK mRNA, 5.00 μM ([2]; HepaRG cells): 68%
- IC50 ([2]; HepaRG cells, 0.19-5.00 μM): 2.2 µM

Substance: 546846 (e[5mC]*eT*eG*eT*e[5mC]*d[5mC]*dT*dA*dT*dA*dT*d[5mC]*dA*d[5mC]*dT*eG*eT*e[5mC]*e[5mC]*eT; antisense) [compound 546846]
- % inhibition [1, 11]: 95%
- percent inhibition of PKK at 0.19 0μM [2, 7]: 26%
- percent inhibition of PKK at 0.56 0μM [2, 7]: 49%
- percent inhibition of PKK at 1.67 1μM [2, 7]: 85%
- IC50 [2, 9]: 0.5 µM
- percent inhibition of PKK at 0.19 μM [2, 12]: 36%
- percent inhibition of PKK at 0.56 μM [2, 12]: 45%
- percent inhibition of PKK at 1.67 μM [2, 12]: 71%
- percent inhibition of PKK at 5.00 μM [2, 12]: 82%
- IC50 [2, 13]: 0.5 µM

Substance: 547288 (antisense e[5mC]*eA*eT*eA*eG*dA*dG*dT*dT*dG*dA*dG*dT*d[5mC]*dA*eG*eA*e[5mC]*eA*eT) [compound 547288]
- % inhibition [1, 10]: 80%
- percent inhibition of PKK at 0.19 μM [2, 14]: 0%
- percent inhibition of PKK at 0.56 μM [2, 14]: 0%
- percent inhibition of PKK at 1.67 μM [2, 14]: 0%
- percent inhibition of PKK at 5.00 μM [2, 14]: 38%
- IC50 ([2]; 4 point dose response, HepaRG cells, Table 40): > 5 µM

Substance: 547341 (antisense eG*eA*e[5mC]*eT*e[5mC]*d[5mC]*dT*d[5mC]*dT*d[5mC]*dA*dT*dA*dT*d[5mC]*eA*eA*e[5mC]*eT*e[5mC]) [compound 547341]
- % inhibition [1, 15]: 87%
- percent inhibition of PKK at 0.19 μM [2, 16]: 36%
- percent inhibition of PKK at 0.56 μM [2, 16]: 58%
- percent inhibition of PKK at 1.67 μM [2, 16]: 91%
- percent inhibition of PKK at 5.00 μM [2, 16]: 95%
- IC50 ([2]; 4 point dose response, HepaRG cells, Table 39): 0.3 µM
- percent inhibition of PKK mRNA, 0.19 μM ([2]; HepaRG cells): 45%
- percent inhibition of PKK mRNA, 0.56 μM ([2]; HepaRG cells): 44%
- percent inhibition of PKK mRNA, 1.67 μM ([2]; HepaRG cells): 81%
- percent inhibition of PKK mRNA, 5.00 μM ([2]; HepaRG cells): 95%
- IC50 ([2]; HepaRG cells, 0.19-5.00 μM): 0.6 µM

Substance: 547413 (eG*eT*eG*eA*eA*dA*dA*dA*d[5mC]*dT*dG*dA*d[5mC]*dA*dG*e[5mC]*eG*eA*eA*eT; antisense) [compound 547413]
- % inhibition ([1]; Table 8, HepaRG cells, electroporation with 5,000 nM antisense oligonucleotide, approx. 24 hours, PKK mRNA by RT-PCR (RTS3454), relative to untreated control cells): 94%
- percent inhibition of PKK at 0.19 μM [2, 12]: 0%
- percent inhibition of PKK at 0.56 μM [2, 12]: 0%
- percent inhibition of PKK at 1.67 μM [2, 12]: 41%
- percent inhibition of PKK at 5.00 μM [2, 12]: 83%
- IC50 [2, 13]: 2.2 µM

Substance: 546410 (eG*eA*e[5mC]*eT*eT*dT*dG*dG*dG*dT*dT*dT*d[5mC]*dT*dG*e[5mC]*e[5mC]*eA*eA*e[5mC]; antisense) [compound 546410]
- % inhibition ([1]; HepaRG cells, electroporation, 5,000 nM antisense oligonucleotide, approx. 24 hours, primer probe set RTS3454, relative to untreated control cells, Table 12): 83%
- percent inhibition of PKK at 0.19 μM [2, 17]: 13%
- percent inhibition of PKK at 0.56 μM [2, 17]: 43%
- percent inhibition of PKK at 1.67 μM [2, 17]: 52%
- percent inhibition of PKK at 5.00 μM [2, 17]: 75%
- IC50 [2, 18]: 1.2 µM

Substance: 546894 (eT*e[5mC]*eA*e[5mC]*eT*dG*dT*d[5mC]*d[5mC]*dT*dA*dT*dG*dT*d[5mC]*eA*e[5mC]*eT*eG*eT; antisense) [compound 546894]
- % inhibition ([1]; human PKK mRNA, HepaRG cells, 5-10-5 motif oligonucleotides targeting SEQ ID NO: 1 and 10): 91%
- percent inhibition of PKK at 0.19 μM [2, 19]: 15%
- percent inhibition of PKK at 0.56 μM [2, 19]: 47%
- percent inhibition of PKK at 1.67 μM [2, 19]: 50%
- percent inhibition of PKK at 5.00 μM [2, 19]: 93%
- IC50 ([2]; 4 point dose response, HepaRG cells, Table 36): 0.9 µM

Substance: 546832 (e[5mC]*eT*e[5mC]*eT*eA*dA*d[5mC]*dA*dG*dT*dA*dT*d[5mC]*dA*d[5mC]*eT*eG*eT*eA*e[5mC]; antisense) [compound 546832]
- % inhibition [1, 11]: 88%
- percent inhibition of PKK at 0.19 μM [2, 3]: 19%
- percent inhibition of PKK at 0.56 μM [2, 3]: 38%
- percent inhibition of PKK at 1.67 μM [2, 3]: 70%
- percent inhibition of PKK at 5.00 μM [2, 3]: 95%
- IC50 [2, 4]: 0.8 µM
- percent inhibition of PKK mRNA, 0.19 μM ([2]; HepaRG cells): 36%
- percent inhibition of PKK mRNA, 0.56 μM ([2]; HepaRG cells): 49%
- percent inhibition of PKK mRNA, 1.67 μM ([2]; HepaRG cells): 85%
- percent inhibition of PKK mRNA, 5.00 μM ([2]; HepaRG cells): 97%
- IC50 ([2]; HepaRG cells, 0.19-5.00 μM): 0.4 µM

Substance: 546877 (e[5mC]*eA*e[5mC]*eT*eG*dT*d[5mC]*d[5mC]*dT*dA*dT*dA*dT*d[5mC]*dA*e[5mC]*eT*eG*eT*eA; antisense) [compound 546877]
- % inhibition [1, 5]: 88%
- percent inhibition of PKK at 0.19 μM [2, 3]: 0%
- percent inhibition of PKK at 0.56 μM [2, 3]: 19%
- percent inhibition of PKK at 1.67 μM [2, 3]: 75%
- percent inhibition of PKK at 5.00 μM [2, 3]: 80%
- IC50 [2, 4]: 1.3 µM

Substance: 547615 (antisense eT*e[5mC]*e[5mC]*eT*eA*dT*dA*dT*d[5mC]*dA*d[5mC]*dT*dG*dT*dA*e[5mC]*e[5mC]*eT*eG*eT) [compound 547615]
- % inhibition [1, 5]: 84%
- percent inhibition of PKK at 0.19 μM [2, 17]: 20%
- percent inhibition of PKK at 0.56 μM [2, 17]: 26%
- percent inhibition of PKK at 1.67 μM [2, 17]: 41%
- percent inhibition of PKK at 5.00 μM [2, 17]: 84%
- IC50 [2, 18]: 1.4 µM

Substance: 546195 (antisense eG*e[5mC]*eT*eA*eA*d[5mC]*d[5mC]*dT*dT*dA*dG*dA*d[5mC]*dA*d[5mC]*eA*eT*eT*eA*eA) [compound 546195]
- % inhibition [1, 15]: 83%
- percent inhibition of PKK at 0.19 μM [2, 17]: 34%
- percent inhibition of PKK at 0.56 μM [2, 17]: 51%
- percent inhibition of PKK at 1.67 μM [2, 17]: 79%
- percent inhibition of PKK at 5.00 μM [2, 17]: 92%
- IC50 [2, 18]: 0.5 µM
- percent inhibition of PKK mRNA, 0.19 μM ([2]; HepaRG cells): 0%
- percent inhibition of PKK mRNA, 0.56 μM ([2]; HepaRG cells): 27%
- percent inhibition of PKK mRNA, 1.67 μM ([2]; HepaRG cells): 91%
- percent inhibition of PKK mRNA, 5.00 μM ([2]; HepaRG cells): 94%
- IC50 ([2]; HepaRG cells, 0.19-5.00 μM): 0.9 µM
